# Assay results from ChEMBL document CHEMBL1201862, “PubChem BioAssay data set” (2004).
#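 Values below derive from 48-hour exposures of cells grown in 96-well plates, with endpoints linearly interpolated between the two concentrations bracketing the appropriate inhibition level. GI50 = concentration required for 50% inhibition of growth.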 Activity calls are given as the source filed them. Cut-off read from the data, not from the text of the source: active = GI50 up to about 1.1 µM and inactive = higher.
# Legend:
# Experiment in all cases: NCI tumour cell line growth inhibition, 48 h
# 786-0 = system: 786-0
# A498 = system: A498
# A549 = system: A549
# ACHN = system: ACHN
# CAKI-1 = system: CAKI-1
# CCRF-CEM = system: CCRF-CEM
# DLD-1 = system: DLD-1
# DMS-114 = system: DMS-114
# DMS-273 = system: DMS-273
# EKVX = system: EKVX
# HCC 2998 = system: HCC 2998
# HCT-116 = system: HCT-116
# HCT-15 = system: HCT-15
# HL-60 = system: HL-60
# HOP-92 = system: HOP-92
# HT-29 = system: HT-29
# IGROV-1 = system: IGROV-1
# K562 = system: K562
# KM-20L2 = system: KM-20L2
# LOX IMVI = system: LOX IMVI
# LXFL 529 = system: LXFL 529
# M14 = system: M14
# M19-MEL = system: M19-MEL
# MOLT-4 = system: MOLT-4
# Malme-3M = system: Malme-3M
# NCI-H226 = system: NCI-H226
# NCI-H23 = system: NCI-H23
# NCI-H460 = system: NCI-H460
# OVCAR-3 = system: OVCAR-3
# OVCAR-4 = system: OVCAR-4
# OVCAR-5 = system: OVCAR-5
# OVCAR-8 = system: OVCAR-8
# RPMI-8226 = system: RPMI-8226
# RXF 393 = system: RXF 393
# SF-268 = system: SF-268
# SF-295 = system: SF-295
# SF-539 = system: SF-539
# SK-MEL-28 = system: SK-MEL-28
# SK-MEL-2 = system: SK-MEL-2
# SK-MEL-5 = system: SK-MEL-5
# SN12C = system: SN12C
# SNB-19 = system: SNB-19
# SNB-75 = system: SNB-75
# SNB-78 = system: SNB-78
# SR = system: SR
# SW-620 = system: SW-620
# TK-10 = system: TK-10
# U-251 = system: U-251
# UACC-257 = system: UACC-257
# UACC-62 = system: UACC-62
# UO-31 = system: UO-31
# XF498 = system: XF498
# COLO 205 = system: COLO 205
# HOP-18 = system: HOP-18
# HOP-62 = system: HOP-62
# KM12 = system: KM12
# NCI-H522 = system: NCI-H522
# SK-OV-3 = system: SK-OV-3
smiles,measurement,setting,value
O=C(CC1Sc2ccccc2NC1=O)Nc1cccc(Cl)c1 (centres undefined),GI50,786-0,39.4 µM (inactive)
same,GI50,A498,28.6 µM (inactive)
same,GI50,A549,43.8 µM (inactive)
same,GI50,ACHN,31.8 µM (inactive)
same,GI50,CAKI-1,33 µM (inactive)
same,GI50,CCRF-CEM,40.4 µM (inactive)
same,GI50,DLD-1,48.4 µM (inactive)
same,GI50,DMS-114,34.2 µM (inactive)
same,GI50,DMS-273,28.2 µM (inactive)
same,GI50,EKVX,22.5 µM (inactive)
same,GI50,HCC 2998,89.3 µM (inactive)
same,GI50,HCT-116,68.5 µM (inactive)
same,GI50,HCT-15,40.6 µM
same,GI50,HL-60,35.6 µM (inactive)
same,GI50,HOP-92,25.5 µM (inactive)
same,GI50,HT-29,57.3 µM (inactive)
same,GI50,IGROV-1,40.9 µM (inactive)
same,GI50,K562,51.8 µM (inactive)
same,GI50,KM-20L2,38.2 µM (inactive)
same,GI50,LOX IMVI,20.3 µM (inactive)
same,GI50,LXFL 529,42.1 µM (inactive)
same,GI50,M14,38.3 µM (inactive)
same,GI50,M19-MEL,81.5 µM (inactive)
same,GI50,MOLT-4,15.9 µM (inactive)
same,GI50,Malme-3M,55.2 µM (inactive)
same,GI50,NCI-H226,26.8 µM (inactive)
same,GI50,NCI-H23,55.5 µM (inactive)
same,GI50,NCI-H460,38.5 µM (inactive)
same,GI50,OVCAR-3,27 µM (inactive)
same,GI50,OVCAR-4,44.8 µM (inactive)
same,GI50,OVCAR-5,> 100 µM (inactive)
same,GI50,OVCAR-8,26.2 µM (inactive)
same,GI50,RPMI-8226,21.7 µM (inactive)
same,GI50,RXF 393,33.3 µM (inactive)
same,GI50,SF-268,34.9 µM (inactive)
same,GI50,SF-295,59.3 µM (inactive)
same,GI50,SF-539,72.9 µM (inactive)
same,GI50,SK-MEL-28,24 µM (inactive)
same,GI50,SK-MEL-2,39 µM (inactive)
same,GI50,SK-MEL-5,40.1 µM (inactive)
same,GI50,SN12C,48.2 µM (inactive)
same,GI50,SNB-19,46.9 µM (inactive)
same,GI50,SNB-75,32.4 µM (inactive)
same,GI50,SNB-78,47.9 µM (inactive)
same,GI50,SR,34 µM (inactive)
same,GI50,SW-620,34.4 µM (inactive)
same,GI50,TK-10,41.9 µM (inactive)
same,GI50,U-251,30.4 µM (inactive)
same,GI50,UACC-257,> 100 µM (inactive)
same,GI50,UACC-62,28.3 µM (inactive)
same,GI50,UO-31,28.8 µM (inactive)
same,GI50,XF498,28 µM (inactive)
COC1CCC(=C2C(=O)OC(C)(C)OC2=O)N1 (centres undefined),GI50,786-0,> 100 µM (inactive)
same,GI50,A549,> 100 µM (inactive)
same,GI50,ACHN,> 100 µM (inactive)
same,GI50,CAKI-1,> 100 µM (inactive)
same,GI50,CCRF-CEM,> 100 µM (inactive)
same,GI50,COLO 205,> 100 µM (inactive)
same,GI50,DLD-1,> 100 µM (inactive)
same,GI50,DMS-114,> 100 µM (inactive)
same,GI50,DMS-273,> 100 µM (inactive)
same,GI50,EKVX,> 100 µM (inactive)
same,GI50,HCC 2998,> 100 µM (inactive)
same,GI50,HCT-116,> 100 µM (inactive)
same,GI50,HCT-15,> 100 µM
same,GI50,HL-60,> 100 µM (inactive)
same,GI50,HOP-18,> 100 µM (inactive)
same,GI50,HOP-62,> 100 µM (inactive)
same,GI50,HT-29,> 100 µM (inactive)
same,GI50,IGROV-1,> 100 µM (inactive)
same,GI50,K562,> 100 µM (inactive)
same,GI50,KM-20L2,> 100 µM (inactive)
same,GI50,KM12,> 100 µM (inactive)
same,GI50,LOX IMVI,> 100 µM (inactive)
same,GI50,LXFL 529,> 100 µM (inactive)
same,GI50,M14,> 100 µM (inactive)
same,GI50,M19-MEL,> 100 µM (inactive)
same,GI50,MOLT-4,> 100 µM (inactive)
same,GI50,Malme-3M,> 100 µM (inactive)
same,GI50,NCI-H226,> 100 µM (inactive)
same,GI50,NCI-H23,> 100 µM (inactive)
same,GI50,NCI-H460,> 100 µM (inactive)
same,GI50,NCI-H522,> 100 µM (inactive)
same,GI50,OVCAR-4,> 100 µM (inactive)
same,GI50,OVCAR-5,> 100 µM (inactive)
same,GI50,OVCAR-8,> 100 µM (inactive)
same,GI50,RPMI-8226,> 100 µM (inactive)
same,GI50,RXF 393,> 100 µM (inactive)
same,GI50,SF-268,> 100 µM (inactive)
same,GI50,SF-295,> 100 µM (inactive)
same,GI50,SF-539,> 100 µM (inactive)
same,GI50,SK-MEL-28,> 100 µM (inactive)
same,GI50,SK-MEL-2,> 100 µM (inactive)
same,GI50,SK-OV-3,> 100 µM (inactive)
same,GI50,SN12C,> 100 µM (inactive)
same,GI50,SNB-19,> 100 µM (inactive)
same,GI50,SNB-75,> 100 µM (inactive)
same,GI50,SW-620,> 100 µM (inactive)
same,GI50,TK-10,> 100 µM (inactive)
same,GI50,U-251,> 100 µM (inactive)
same,GI50,UACC-257,> 100 µM (inactive)
same,GI50,UACC-62,> 100 µM (inactive)
same,GI50,UO-31,> 100 µM (inactive)
same,GI50,XF498,> 100 µM (inactive)
C/C=C1/CCC2c3[nH]c4ccccc4c3CCN2C1 (centres undefined),GI50,786-0,> 100 µM (inactive)
same,GI50,A498,> 100 µM (inactive)
same,GI50,A549,> 100 µM (inactive)
same,GI50,ACHN,> 100 µM (inactive)
same,GI50,CAKI-1,37.2 µM (inactive)
same,GI50,CCRF-CEM,> 100 µM (inactive)
same,GI50,DLD-1,> 100 µM (inactive)
same,GI50,DMS-114,93.8 µM (inactive)
same,GI50,DMS-273,> 100 µM (inactive)
same,GI50,EKVX,> 100 µM (inactive)
same,GI50,HCT-116,66.5 µM (inactive)
same,GI50,HL-60,58.2 µM (inactive)
same,GI50,HOP-62,> 100 µM (inactive)
same,GI50,HOP-92,24.2 µM (inactive)
same,GI50,HT-29,45.7 µM (inactive)
same,GI50,IGROV-1,> 100 µM (inactive)
same,GI50,K562,32 µM (inactive)
same,GI50,KM-20L2,97.1 µM (inactive)
same,GI50,KM12,> 100 µM (inactive)
same,GI50,LXFL 529,> 100 µM (inactive)
same,GI50,M14,14.4 µM (inactive)
same,GI50,M19-MEL,86.3 µM (inactive)
same,GI50,MOLT-4,> 100 µM (inactive)
same,GI50,Malme-3M,0.256 µM (active)
same,GI50,NCI-H226,57.5 µM (inactive)
same,GI50,NCI-H23,> 100 µM (inactive)
same,GI50,NCI-H460,> 100 µM (inactive)
same,GI50,NCI-H522,> 100 µM (inactive)
same,GI50,OVCAR-3,> 100 µM (inactive)
same,GI50,OVCAR-4,42 µM (inactive)
same,GI50,OVCAR-5,> 100 µM (inactive)
same,GI50,OVCAR-8,> 100 µM (inactive)
same,GI50,RXF 393,> 100 µM (inactive)
same,GI50,SF-268,> 100 µM (inactive)
same,GI50,SF-295,> 100 µM (inactive)
same,GI50,SF-539,> 100 µM (inactive)
same,GI50,SK-MEL-28,> 100 µM (inactive)
same,GI50,SK-MEL-2,> 100 µM (inactive)
same,GI50,SK-MEL-5,37.2 µM (inactive)
same,GI50,SK-OV-3,> 100 µM (inactive)
same,GI50,SN12C,> 100 µM (inactive)
same,GI50,SNB-19,> 100 µM (inactive)
same,GI50,SNB-75,66.4 µM (inactive)
same,GI50,SNB-78,> 100 µM (inactive)
same,GI50,SR,> 100 µM (inactive)
same,GI50,SW-620,> 100 µM (inactive)
same,GI50,TK-10,> 100 µM (inactive)
same,GI50,U-251,> 100 µM (inactive)
same,GI50,UACC-257,64.9 µM (inactive)
same,GI50,UACC-62,60.8 µM (inactive)
same,GI50,UO-31,> 100 µM (inactive)
same,GI50,XF498,55.6 µM (inactive)
Cc1ccc2c(c1)-c1c3c(nn1C)-c1ccccc1SC3O2 (centres undefined),GI50,786-0,> 100 µM (inactive)
same,GI50,A498,49.7 µM (inactive)
same,GI50,A549,50 µM (inactive)
same,GI50,ACHN,54.1 µM (inactive)
same,GI50,CCRF-CEM,41 µM (inactive)
same,GI50,COLO 205,75.5 µM (inactive)
same,GI50,DLD-1,> 100 µM (inactive)
same,GI50,DMS-114,32.3 µM (inactive)
same,GI50,DMS-273,55.5 µM (inactive)
same,GI50,EKVX,44.5 µM (inactive)
same,GI50,HCC 2998,34 µM (inactive)
same,GI50,HCT-116,33.7 µM (inactive)
same,GI50,HL-60,24.5 µM (inactive)
same,GI50,HOP-18,8.43 µM (inactive)
same,GI50,HOP-62,> 100 µM (inactive)
same,GI50,HOP-92,27 µM (inactive)
same,GI50,HT-29,41.6 µM (inactive)
same,GI50,IGROV-1,> 100 µM (inactive)
same,GI50,K562,35.1 µM (inactive)
same,GI50,KM-20L2,87.7 µM (inactive)
same,GI50,KM12,38.6 µM (inactive)
same,GI50,LOX IMVI,> 100 µM (inactive)
same,GI50,LXFL 529,30.7 µM (inactive)
same,GI50,M19-MEL,81.3 µM (inactive)
same,GI50,MOLT-4,26.1 µM (inactive)
same,GI50,Malme-3M,> 100 µM (inactive)
same,GI50,NCI-H23,> 100 µM (inactive)
same,GI50,NCI-H460,65.8 µM (inactive)
same,GI50,NCI-H522,78.7 µM (inactive)
same,GI50,OVCAR-3,85.9 µM (inactive)
same,GI50,OVCAR-5,> 100 µM (inactive)
same,GI50,OVCAR-8,39.6 µM (inactive)
same,GI50,RPMI-8226,21.8 µM (inactive)
same,GI50,RXF 393,> 100 µM (inactive)
same,GI50,SF-268,55.6 µM (inactive)
same,GI50,SF-295,83.8 µM (inactive)
same,GI50,SF-539,> 100 µM (inactive)
same,GI50,SK-MEL-28,78.9 µM (inactive)
same,GI50,SK-MEL-2,64.9 µM (inactive)
same,GI50,SK-OV-3,> 100 µM (inactive)
same,GI50,SNB-75,55.8 µM (inactive)
same,GI50,SNB-78,> 100 µM (inactive)
same,GI50,SW-620,> 100 µM (inactive)
same,GI50,TK-10,> 100 µM (inactive)
same,GI50,U-251,> 100 µM (inactive)
same,GI50,UACC-257,50.6 µM (inactive)
same,GI50,UO-31,20.8 µM (inactive)
same,GI50,XF498,23.4 µM (inactive)
